{"source": "paper PMC10470178", "about": "“Long-acting lenacapavir protects macaques against intravenous challenge with simian-tropic HIV” (eBioMedicine, 2023)", "key": {"stHIV-A19 [1]": {"system": "stHIV-A19", "test": "Multi-round viral replication assay in SupT1-CCR5 cells, stHIV-A19", "type": "cell-based, simian-tropic HIV-1", "settings": "Human immunodeficiency virus 1, 168 h, supernatant vRNA 7 days post-infection, mean ± SD of three independent experiments, read-out: mean EC50 against stHIV-A19", "protocol": "Infectious stocks of stHIV-A19,[23] HIV-1 NL4-3, and SIVmac239 were produced in HEK-293T (RRID: CVCL_1926) cells transfected with full-length viral genome plasmids using the TransIT HEK-293 transfection reagent (Mirus Bio) according to the manufacturer’s instructions. Virus stock infectious titres were determined on TZM-bl reporter cells (RRID: CVCL_B478) as previously described.[26] For experiments using SupT1-CCR5 target cells (RRID: CVCL_X633),[27] cultures were maintained in RPMI 1640 medium supplemented with 10% foetal bovine serum (FBS), 2 mM glutamine, 100 U/ml penicillin, and 100 μg/ml streptomycin. […] Cells were then washed three times to remove input virus, counted, and cultured in triplicate in growth media containing serial threefold dilutions of LEN or no LEN (control). […] Culture supernatants were collected 7 days post-inoculation, clarified by centrifugation, and stored at −80 °C for later quantification of vRNA by quantitative reverse transcription polymerase chain reaction (qRT-PCR). […] The stHIV-A19 stock was quantified with a SYBR Green-based qPCR-based product-enhanced RT (PERT) assay using a purified reverse transcriptase (RT) protein standard, as previously described.[28] […] After 7 days, the virus in culture supernatants was quantified using the PERT assay. […]"}, "stHIV-A19 [2]": {"system": "stHIV-A19", "test": "Multi-round replication assay of stHIV-A19 in pigtail macaque PBMCs (PERT readout)", "type": "cell-based, simian-tropic HIV-1", "settings": "for mean EC95 against stHIV-A19 in pigtail macaque PBMC: PTM PBMCs, three donors, RT in supernatant at 7 days, calculated from EC50 with Hill coefficient 3.51", "protocol": "Infectious stocks of stHIV-A19,[23] HIV-1 NL4-3, and SIVmac239 were produced in HEK-293T (RRID: CVCL_1926) cells transfected with full-length viral genome plasmids using the TransIT HEK-293 transfection reagent (Mirus Bio) according to the manufacturer’s instructions. Virus stock infectious titres were determined on TZM-bl reporter cells (RRID: CVCL_B478) as previously described.[26] For experiments using SupT1-CCR5 target cells (RRID: CVCL_X633),[27] cultures were maintained in RPMI 1640 medium supplemented with 10% foetal bovine serum (FBS), 2 mM glutamine, 100 U/ml penicillin, and 100 μg/ml streptomycin. SupT1-CCR5 cells were inoculated with stHIV-A19, HIV-1 NL4-3, or SIVmac239 at a multiplicity of infection (MOI) = 0.0125 and cultured at 37 °C for 4 h. Cells were then washed three times to remove input virus, counted, and cultured in triplicate in growth media containing serial threefold dilutions of LEN or no LEN (control). The concentration of DMSO (LEN vehicle) was maintained at 0.5% for all cultures. Culture supernatants were collected 7 days post-inoculation, clarified by centrifugation, and stored at −80 °C for later quantification of vRNA by quantitative reverse transcription polymerase chain reaction (qRT-PCR). Primary human peripheral blood mononuclear cells (PBMCs) from anonymous HIV-negative donors were isolated from leukopaks obtained from the New York Blood Center for experiments using primary human and PTM PBMC. […] The stHIV-A19 stock was quantified with a SYBR Green-based qPCR-based product-enhanced RT (PERT) assay using a purified reverse transcriptase (RT) protein standard, as previously described.[28] […] After 7 days, the virus in culture supernatants was quantified using the PERT assay. […] The EC95 for LEN against stHIV-A19 was then calculated from its corresponding EC50 values using the ECanything equation: ECF = EC50 × (F/100-F)^1/n, where F equals the percent response (e.g., 95) and n equals the Hill coefficient for LEN (n = 3.51) as previously described.[16]"}}, "note": "Values joined by “and” are separate entries in the source; they are usually repeats but may differ in a detail not shown here. Equal values may be shown once."}
{"smiles": "CC(C)(C#Cc1ccc(-c2ccc(Cl)c3c(NS(C)(=O)=O)nn(CC(F)(F)F)c23)c([C@H](Cc2cc(F)cc(F)c2)NC(=O)Cn2nc(C(F)(F)F)c3c2C(F)(F)[C@@H]2C[C@H]32)n1)S(C)(=O)=O", "note": "[LEN, Lenacapavir]", "values": [{"measurement": "EC50", "setting": "stHIV-A19 [1]", "result": 0.091, "unit": "nM"}, {"measurement": "plasma protein binding-adjusted EC95 (PA-EC95) against stHIV-A19 in PTMs", "setting": "stHIV-A19 [2]; EC95 in PTM PBMC adjusted by 9.7-fold plasma shift", "result": "1.46 (±0.07 SD) nM and 1.46 nM"}, {"measurement": "mean EC95 against stHIV-A19 in pigtail macaque PBMC", "setting": "stHIV-A19 [2]", "result": "149 ± 7", "unit": "pM"}, {"measurement": "mean EC95 against stHIV-A19 in pigtail macaque PBMC", "setting": "stHIV-A19 [2]; listed as Lenacapavir", "result": "149 (±7 SD) pM"}]}
